Results published in patent US10765114B2, “4-amino-6-(pyridyl and 2-substitutedphenyl)-picolinates and 6-amino-2-(pyridyl and 2-substitutedphenyl)-pyrimidine-4-carboxylates and their use as herbicides” (Dow AgroSciences LLC, priority 2013, dated 2020).

tested on: Key Broadleaf Weed and Crop Species; assay: Post-Emergent Test II (Table 5); format: in vivo; conditions: Abutilon theophrasti, post-emergence, 336 h, ABUTH: velvetleaf (Abutilon theophrasti), application rate 70 (kg ai/ha; footnote: g ai/ha), read-out: Visual Growth Reduction (%) 14 Days After Application ABUTH
Outline: (§1)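 Growth stage at treatment: first or second true leaf. Application: compound in acetone/DMSO diluted into an adjuvant-containing aqueous mix, sprayed at 187 L/ha at several rates. Assessment: visual 0-100% injury at 14 days against untreated plants.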

Structure (SMILES) | pest or weed control at 70 g/ha
C=Cc1c(-c2cc(N)c(Cl)c(C(=O)O)n2)ccc(Cl)c1F [Compound 89, 4-Amino-3-chloro-6-(4-chloro-3-fluoro-2-vinylphenyl)picolinic acid] | 85 to 94%

same assay, conditions: Abutilon theophrasti, post-emergence, 336 h, ABUTH: velvetleaf (Abutilon theophrasti), application rate 140 (kg ai/ha; footnote: g ai/ha), read-out: Visual Growth Reduction (%) 14 Days After Application ABUTH

Structure (SMILES) | pest or weed control at 140 g/ha
C=Cc1c(-c2cc(N)c(Cl)c(C(=O)O)n2)ccc(Cl)c1F [Compound 89, 4-Amino-3-chloro-6-(4-chloro-3-fluoro-2-vinylphenyl)picolinic acid] | 95 to 100%

same assay, conditions: Amaranthus retroflexus, post-emergence, 336 h, AMARE: redroot pigweed (Amaranthus retroflexus), application rate 70 (kg ai/ha; footnote: g ai/ha), read-out: Visual Growth Reduction (%) 14 Days After Application AMARE

Structure (SMILES) | pest or weed control at 70 g/ha
C=Cc1c(-c2cc(N)c(Cl)c(C(=O)O)n2)ccc(Cl)c1F [Compound 89, 4-Amino-3-chloro-6-(4-chloro-3-fluoro-2-vinylphenyl)picolinic acid] | 95 to 100%

same assay, conditions: Amaranthus retroflexus, post-emergence, 336 h, AMARE: redroot pigweed (Amaranthus retroflexus), application rate 140 (kg ai/ha; footnote: g ai/ha), read-out: Visual Growth Reduction (%) 14 Days After Application AMARE

Structure (SMILES) | pest or weed control at 140 g/ha
C=Cc1c(-c2cc(N)c(Cl)c(C(=O)O)n2)ccc(Cl)c1F [Compound 89, 4-Amino-3-chloro-6-(4-chloro-3-fluoro-2-vinylphenyl)picolinic acid] | 95 to 100%

same assay, conditions: Brassica napus, post-emergence, 336 h, BRSSS: oilseed rape, canola (Brassica napus), application rate 70 (kg ai/ha; footnote: g ai/ha), read-out: Visual Growth Reduction (%) 14 Days After Application BRSSS

Structure (SMILES) | pest or weed control at 70 g/ha
C=Cc1c(-c2cc(N)c(Cl)c(C(=O)O)n2)ccc(Cl)c1F [Compound 89, 4-Amino-3-chloro-6-(4-chloro-3-fluoro-2-vinylphenyl)picolinic acid] | 95 to 100%

same assay, conditions: Brassica napus, post-emergence, 336 h, BRSSS: oilseed rape, canola (Brassica napus), application rate 140 (kg ai/ha; footnote: g ai/ha), read-out: Visual Growth Reduction (%) 14 Days After Application BRSSS

Structure (SMILES) | pest or weed control at 140 g/ha
C=Cc1c(-c2cc(N)c(Cl)c(C(=O)O)n2)ccc(Cl)c1F [Compound 89, 4-Amino-3-chloro-6-(4-chloro-3-fluoro-2-vinylphenyl)picolinic acid] | 95 to 100%

same assay, conditions: Chenopodium album, post-emergence, 336 h, CHEAL: lambsquarters (Chenopodium album), application rate 70 (kg ai/ha; footnote: g ai/ha), read-out: Visual Growth Reduction (%) 14 Days After Application CHEAL

Structure (SMILES) | pest or weed control at 70 g/ha
C=Cc1c(-c2cc(N)c(Cl)c(C(=O)O)n2)ccc(Cl)c1F [Compound 89, 4-Amino-3-chloro-6-(4-chloro-3-fluoro-2-vinylphenyl)picolinic acid] | 95 to 100%

same assay, conditions: Chenopodium album, post-emergence, 336 h, CHEAL: lambsquarters (Chenopodium album), application rate 140 (kg ai/ha; footnote: g ai/ha), read-out: Visual Growth Reduction (%) 14 Days After Application CHEAL

Structure (SMILES) | pest or weed control at 140 g/ha
C=Cc1c(-c2cc(N)c(Cl)c(C(=O)O)n2)ccc(Cl)c1F [Compound 89, 4-Amino-3-chloro-6-(4-chloro-3-fluoro-2-vinylphenyl)picolinic acid] | 95 to 100%

same assay, conditions: Euphorbia heterophylla, post-emergence, 336 h, EPHHL: wild poinsettia (Euphorbia heterophylla), application rate 70 (kg ai/ha; footnote: g ai/ha), read-out: Visual Growth Reduction (%) 14 Days After Application EPHHL

Structure (SMILES) | pest or weed control at 70 g/ha
C=Cc1c(-c2cc(N)c(Cl)c(C(=O)O)n2)ccc(Cl)c1F [Compound 89, 4-Amino-3-chloro-6-(4-chloro-3-fluoro-2-vinylphenyl)picolinic acid] | 30 to 44%

same assay, conditions: Euphorbia heterophylla, post-emergence, 336 h, EPHHL: wild poinsettia (Euphorbia heterophylla), application rate 140 (kg ai/ha; footnote: g ai/ha), read-out: Visual Growth Reduction (%) 14 Days After Application EPHHL

Structure (SMILES) | pest or weed control at 140 g/ha
C=Cc1c(-c2cc(N)c(Cl)c(C(=O)O)n2)ccc(Cl)c1F [Compound 89, 4-Amino-3-chloro-6-(4-chloro-3-fluoro-2-vinylphenyl)picolinic acid] | 45 to 59%

same assay, conditions: Helianthus annuus, post-emergence, 336 h, HELAN: sunflower (Helianthus annuus), application rate 70 (kg ai/ha; footnote: g ai/ha), read-out: Visual Growth Reduction (%) 14 Days After Application HELAN

Structure (SMILES) | pest or weed control at 70 g/ha
C=Cc1c(-c2cc(N)c(Cl)c(C(=O)O)n2)ccc(Cl)c1F [Compound 89, 4-Amino-3-chloro-6-(4-chloro-3-fluoro-2-vinylphenyl)picolinic acid] | 95 to 100%

same assay, conditions: Helianthus annuus, post-emergence, 336 h, HELAN: sunflower (Helianthus annuus), application rate 140 (kg ai/ha; footnote: g ai/ha), read-out: Visual Growth Reduction (%) 14 Days After Application HELAN

Structure (SMILES) | pest or weed control at 140 g/ha
C=Cc1c(-c2cc(N)c(Cl)c(C(=O)O)n2)ccc(Cl)c1F [Compound 89, 4-Amino-3-chloro-6-(4-chloro-3-fluoro-2-vinylphenyl)picolinic acid] | 95 to 100%

same assay, conditions: Viola tricolor, post-emergence, 336 h, VIOTR: wild pansy (Viola tricolor), application rate 70 (kg ai/ha; footnote: g ai/ha), read-out: Visual Growth Reduction (%) 14 Days After Application VIOTR

Structure (SMILES) | pest or weed control at 70 g/ha
C=Cc1c(-c2cc(N)c(Cl)c(C(=O)O)n2)ccc(Cl)c1F [Compound 89, 4-Amino-3-chloro-6-(4-chloro-3-fluoro-2-vinylphenyl)picolinic acid] | 45 to 59%

same assay, conditions: Viola tricolor, post-emergence, 336 h, VIOTR: wild pansy (Viola tricolor), application rate 140 (kg ai/ha; footnote: g ai/ha), read-out: Visual Growth Reduction (%) 14 Days After Application VIOTR

Structure (SMILES) | pest or weed control at 140 g/ha
C=Cc1c(-c2cc(N)c(Cl)c(C(=O)O)n2)ccc(Cl)c1F [Compound 89, 4-Amino-3-chloro-6-(4-chloro-3-fluoro-2-vinylphenyl)picolinic acid] | 60 to 74%

tested on: Key Grass and Sedge Weeds as well as Grass Crops; assay: Post-Emergent Test II (Table 6); format: in vivo; conditions: post-emergence, 336 h, CYPSS, 70 g ai/ha, 14 days after application, read-out: Visual Growth Reduction (%) 14 Days After Application CYPSS
Outline: as §1

Structure (SMILES) | pest or weed control at 70 g/ha
C=Cc1c(-c2cc(N)c(Cl)c(C(=O)O)n2)ccc(Cl)c1F [Compound 89, 4-Amino-3-chloro-6-(4-chloro-3-fluoro-2-vinylphenyl)picolinic acid] | 0 to 29%

same assay, conditions: post-emergence, 336 h, CYPSS, 140 g ai/ha, 14 days after application, read-out: Visual Growth Reduction (%) 14 Days After Application CYPSS

Structure (SMILES) | pest or weed control at 140 g/ha
C=Cc1c(-c2cc(N)c(Cl)c(C(=O)O)n2)ccc(Cl)c1F [Compound 89, 4-Amino-3-chloro-6-(4-chloro-3-fluoro-2-vinylphenyl)picolinic acid] | 0 to 29%

same assay, conditions: post-emergence, 336 h, DIGSA: crabgrass (Digitaria sanguinalis), 70 g ai/ha, 14 days after application, read-out: Visual Growth Reduction (%) 14 Days After Application DIGSA

Structure (SMILES) | pest or weed control at 70 g/ha
C=Cc1c(-c2cc(N)c(Cl)c(C(=O)O)n2)ccc(Cl)c1F [Compound 89, 4-Amino-3-chloro-6-(4-chloro-3-fluoro-2-vinylphenyl)picolinic acid] | 30 to 44%

same assay, conditions: post-emergence, 336 h, DIGSA: crabgrass (Digitaria sanguinalis), 140 g ai/ha, 14 days after application, read-out: Visual Growth Reduction (%) 14 Days After Application DIGSA

Structure (SMILES) | pest or weed control at 140 g/ha
C=Cc1c(-c2cc(N)c(Cl)c(C(=O)O)n2)ccc(Cl)c1F [Compound 89, 4-Amino-3-chloro-6-(4-chloro-3-fluoro-2-vinylphenyl)picolinic acid] | 75 to 84%

same assay, conditions: post-emergence, 336 h, ECHSS, 70 g ai/ha, 14 days after application, read-out: Visual Growth Reduction (%) 14 Days After Application ECHSS

Structure (SMILES) | pest or weed control at 70 g/ha
C=Cc1c(-c2cc(N)c(Cl)c(C(=O)O)n2)ccc(Cl)c1F [Compound 89, 4-Amino-3-chloro-6-(4-chloro-3-fluoro-2-vinylphenyl)picolinic acid] | 75 to 84%

same assay, conditions: post-emergence, 336 h, ECHSS, 140 g ai/ha, 14 days after application, read-out: Visual Growth Reduction (%) 14 Days After Application ECHSS

Structure (SMILES) | pest or weed control at 140 g/ha
C=Cc1c(-c2cc(N)c(Cl)c(C(=O)O)n2)ccc(Cl)c1F [Compound 89, 4-Amino-3-chloro-6-(4-chloro-3-fluoro-2-vinylphenyl)picolinic acid] | 85 to 94%

same assay, conditions: post-emergence, 336 h, ORYSS (crop), 70 g ai/ha, 14 days after application, read-out: Visual Growth Reduction (%) 14 Days After Application ORYSS

Structure (SMILES) | pest or weed control at 70 g/ha
C=Cc1c(-c2cc(N)c(Cl)c(C(=O)O)n2)ccc(Cl)c1F [Compound 89, 4-Amino-3-chloro-6-(4-chloro-3-fluoro-2-vinylphenyl)picolinic acid] | 0 to 29%

same assay, conditions: post-emergence, 336 h, ORYSS (crop), 140 g ai/ha, 14 days after application, read-out: Visual Growth Reduction (%) 14 Days After Application ORYSS

Structure (SMILES) | pest or weed control at 140 g/ha
C=Cc1c(-c2cc(N)c(Cl)c(C(=O)O)n2)ccc(Cl)c1F [Compound 89, 4-Amino-3-chloro-6-(4-chloro-3-fluoro-2-vinylphenyl)picolinic acid] | 0 to 29%

same assay, conditions: post-emergence, 336 h, SETFA: giant foxtail (Setaria faberi), 70 g ai/ha, 14 days after application, read-out: Visual Growth Reduction (%) 14 Days After Application SETFA

Structure (SMILES) | pest or weed control at 70 g/ha
C=Cc1c(-c2cc(N)c(Cl)c(C(=O)O)n2)ccc(Cl)c1F [Compound 89, 4-Amino-3-chloro-6-(4-chloro-3-fluoro-2-vinylphenyl)picolinic acid] | 0 to 29%

same assay, conditions: post-emergence, 336 h, SETFA: giant foxtail (Setaria faberi), 140 g ai/ha, 14 days after application, read-out: Visual Growth Reduction (%) 14 Days After Application SETFA

Structure (SMILES) | pest or weed control at 140 g/ha
C=Cc1c(-c2cc(N)c(Cl)c(C(=O)O)n2)ccc(Cl)c1F [Compound 89, 4-Amino-3-chloro-6-(4-chloro-3-fluoro-2-vinylphenyl)picolinic acid] | 0 to 29%

same assay, conditions: post-emergence, 336 h, SORVU: grain sorghum (Sorghum vulgare), 70 g ai/ha, 14 days after application, read-out: Visual Growth Reduction (%) 14 Days After Application SORVU

Structure (SMILES) | pest or weed control at 70 g/ha
C=Cc1c(-c2cc(N)c(Cl)c(C(=O)O)n2)ccc(Cl)c1F [Compound 89, 4-Amino-3-chloro-6-(4-chloro-3-fluoro-2-vinylphenyl)picolinic acid] | 0 to 29%

same assay, conditions: post-emergence, 336 h, SORVU: grain sorghum (Sorghum vulgare), 140 g ai/ha, 14 days after application, read-out: Visual Growth Reduction (%) 14 Days After Application SORVU

Structure (SMILES) | pest or weed control at 140 g/ha
C=Cc1c(-c2cc(N)c(Cl)c(C(=O)O)n2)ccc(Cl)c1F [Compound 89, 4-Amino-3-chloro-6-(4-chloro-3-fluoro-2-vinylphenyl)picolinic acid] | 0 to 29%

same assay, conditions: post-emergence, 336 h, TRZSS (crop), 70 g ai/ha, 14 days after application, read-out: Visual Growth Reduction (%) 14 Days After Application TRZSS

Structure (SMILES) | pest or weed control at 70 g/ha
C=Cc1c(-c2cc(N)c(Cl)c(C(=O)O)n2)ccc(Cl)c1F [Compound 89, 4-Amino-3-chloro-6-(4-chloro-3-fluoro-2-vinylphenyl)picolinic acid] | 0 to 29%

same assay, conditions: post-emergence, 336 h, TRZSS (crop), 140 g ai/ha, 14 days after application, read-out: Visual Growth Reduction (%) 14 Days After Application TRZSS

Structure (SMILES) | pest or weed control at 140 g/ha
C=Cc1c(-c2cc(N)c(Cl)c(C(=O)O)n2)ccc(Cl)c1F [Compound 89, 4-Amino-3-chloro-6-(4-chloro-3-fluoro-2-vinylphenyl)picolinic acid] | 0 to 29%

same assay, conditions: post-emergence, 336 h, ZEAMX: maize, corn (Zea mays), 70 g ai/ha, 14 days after application, read-out: Visual Growth Reduction (%) 14 Days After Application ZEAMX

Structure (SMILES) | pest or weed control at 70 g/ha
C=Cc1c(-c2cc(N)c(Cl)c(C(=O)O)n2)ccc(Cl)c1F [Compound 89, 4-Amino-3-chloro-6-(4-chloro-3-fluoro-2-vinylphenyl)picolinic acid] | 0 to 29%

same assay, conditions: post-emergence, 336 h, ZEAMX: maize, corn (Zea mays), 140 g ai/ha, 14 days after application, read-out: Visual Growth Reduction (%) 14 Days After Application ZEAMX

Structure (SMILES) | pest or weed control at 140 g/ha
C=Cc1c(-c2cc(N)c(Cl)c(C(=O)O)n2)ccc(Cl)c1F [Compound 89, 4-Amino-3-chloro-6-(4-chloro-3-fluoro-2-vinylphenyl)picolinic acid] | 0 to 29%
